Each structure is given as a SMILES string. Read-outs that look alike come from different tables or passages of the source.

For assay [1], the target named is Wee1 kinase (h) (Homo sapiens, UniProt P30291). Briefly: Wee1 kinase (h) detection method, [γ-33P]-ATP filter assay. The assay is classed as biochemical. The settings on record: for Inh. (%) of Wee1 kinase: 10 μM ATP, 40 minutes at room temperature. The gist of the method:
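Radiometric filter-binding assay with human Wee1 in 20 mM Tris/HCl pH 8.5, 0.2 mM EDTA, 500 μM peptide substrate, 10 mM Mg acetate, 10 μM [γ-33P]-ATP; compounds at final 1, 0.1 or 0.01 μM. Reaction 40 min at room temperature, stopped with 0.5% phosphoric acid, spotted on P30 filtermat, scintillation counted, duplicates.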

Assay [2] has as its system LoVo cells. Briefly: MTT based cell viability assay on LoVo cells. The settings on record: for IC50: Homo sapiens, 72 h, read-out: IC50, growth inhibition on LoVo cells.
For assay [3], the system named is NCI-H1299 cells. Briefly: MTT based cell viability assay on NCI-H1299 cells. The following applies: for IC50: Homo sapiens, read-out: IC50, growth inhibition on NCI-H1299 cells. A digest of the protocol: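 NCI-H1299 cells (1000/well) were plated overnight, then given a seven-point serial compound dilution plus DMSO control for 3 d at 37 °C, 5% CO2. Viability was read by MTT (0.5 mg/mL, 4 h, DMSO-solubilised) at 552/630/690 nm. IC50 came from a sigmoidal fit of survival versus concentration.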

Setting [4] is: 72 h, NCI-H1299 cells, 3 d, MTT.

Sequence of Wee1 kinase (h) (P30291 whole entry): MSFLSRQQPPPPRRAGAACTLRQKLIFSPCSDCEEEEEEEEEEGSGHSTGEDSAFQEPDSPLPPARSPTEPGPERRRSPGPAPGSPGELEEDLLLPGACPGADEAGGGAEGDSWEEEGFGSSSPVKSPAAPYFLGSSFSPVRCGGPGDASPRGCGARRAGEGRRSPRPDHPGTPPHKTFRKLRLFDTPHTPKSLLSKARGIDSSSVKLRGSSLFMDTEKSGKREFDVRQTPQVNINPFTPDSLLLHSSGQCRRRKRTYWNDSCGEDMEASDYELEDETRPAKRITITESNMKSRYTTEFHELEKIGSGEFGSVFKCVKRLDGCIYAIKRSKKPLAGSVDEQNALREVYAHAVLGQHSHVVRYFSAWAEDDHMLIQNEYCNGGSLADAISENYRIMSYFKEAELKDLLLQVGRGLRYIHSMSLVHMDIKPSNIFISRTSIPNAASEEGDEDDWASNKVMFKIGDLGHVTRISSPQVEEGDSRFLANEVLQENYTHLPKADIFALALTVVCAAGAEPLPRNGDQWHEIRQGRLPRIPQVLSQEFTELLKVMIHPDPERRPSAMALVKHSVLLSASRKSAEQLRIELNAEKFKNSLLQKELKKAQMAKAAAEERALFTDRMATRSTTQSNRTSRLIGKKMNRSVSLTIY

For the molecule `Cc1cc(Nc2ncc3c(=O)n(-c4c(C)cccc4Cl)n4ccnc4c3n2)ccc1N1CCN(C)CC1` [Example 16, 6-(2-chloro-6-methylphenyl)-2-((3-methyl-4-(4-methylpiperazin-1-yl)phenyl)amino)imidazo[1,2-b]pyrimido[4,5-d]pyridazin-5(6H)-one], the “Inh. (%) of Wee1 kinase” value came out at 22% in assay [1] (C 0.01 μm), 73% in assay [1] (C 0.1 μm) and 93% in assay [1] (C 1 μm). The IC50 in assay [2] (LoVo cells, 3 d, MTT) was 424 nM; in assay [3] (setting [4]) it was 365 nM.

For `CN1CCN(c2ccc(Nc3ncc4c(=O)n(-c5c(F)cccc5Cl)n5ccnc5c4n3)cc2Cl)CC1` [Example 21, 6-(2-chloro-6-fluorophenyl)-2-((3-chloro-4-(4-methylpiperazin-1-yl)phenyl)amino)imidazo[1,2-b]pyrimido[4,5-d]pyridazin-5(6H)-one], the “Inh. (%) of Wee1 kinase” value in assay [1] (C 1 μm) was determined as 95%. The IC50 in assay [2] (LoVo cells, 3 d, MTT) stood at 259 nM; in assay [3] (setting [4]) it was 511 nM.

As for `Cc1cc(Nc2ncc3c(=O)n(-c4c(F)cccc4Cl)n4ccnc4c3n2)cc(F)c1N1CCN(C)CC1` [Example 22, 6-(2-chloro-6-fluorophenyl)-2-((3-fluoro-5-methyl-4-(4-methylpiperazin-1-yl)phenyl)amino)imidazo[1,2-b]pyrimido[4,5-d]pyridazin-5(6H)-one], the “Inh. (%) of Wee1 kinase” value in assay [1] (C 0.01 μm) is 21%; in assay [1] (C 1 μm) it was 95%. For the same molecule, the IC50 came to 138 nM in assay [2] (LoVo cells, 3 d, MTT) and 376 nM in assay [3] (setting [4]).

Regarding `Cc1cc(Nc2ncc3c(=O)n(-c4c(C)cccc4F)n4ccnc4c3n2)ccc1N1CCN(C)CC1` [Example 14, 6-(2-fluoro-6-methylphenyl)-2-((3-methyl-4-(4-methylpiperazin-1-yl)phenyl)amino)imidazo[1,2-b]pyrimido[4,5-d]pyridazin-5(6H)-one], the “Inh. (%) of Wee1 kinase” value in assay [1] (C 1 μm) is 93%. The IC50 was determined as 871 nM in assay [2] (LoVo cells, 3 d, MTT) and 587 nM in assay [3] (setting [4]).

For the molecule `Cc1cccc(Cl)c1-n1c(=O)c2cnc(Nc3ccc(N4CCN(C)CC4)c(Cl)c3)nc2c2nccn21` [Example 53, 6-(2-chloro-6-methylphenyl)-2-((3-chloro-4-(4-methylpiperazin-1-yl)phenyl)amino)imidazo[1,2-b]pyrimido[4,5-d]pyridazin-5(6H)-one], the “Inh. (%) of Wee1 kinase” value was found to be 12% in assay [1] (C 0.01 μm), 69% in assay [1] (C 0.1 μm) and 94% in assay [1] (C 1 μm). For the same molecule, the IC50 in assay [2] (LoVo cells, 3 d, MTT) came to 642 nM; in assay [3] (setting [4]), 809 nM.

With `Cc1cc(Nc2ncc3c(=O)n(-c4c(C)cccc4F)n4ccnc4c3n2)cc(Cl)c1N1CCN(C)CC1` [Example 52, 6-(2-fluoro-6-methylphenyl)-2-((3-chloro-5-methyl-4-(4-methylpiperazin-1-yl)phenyl)amino)imidazo[1,2-b]pyrimido[4,5-d]pyridazin-5(6H)-one], in assay [1] (C 1 μm), the “Inh. (%) of Wee1 kinase” value is recorded as 78%. Besides, the IC50 in assay [2] (LoVo cells, 3 d, MTT) came to 756 nM; in assay [3] (setting [4]) it was 809 nM.

For the molecule `Cc1cc(Nc2ncc3c(=O)n(-c4c(F)cccc4Cl)n4ccnc4c3n2)cc(F)c1N1CCC(N(C)C)CC1` [Example 25, 6-(2-chloro-6-fluorophenyl)-2-((3-fluoro-5-methyl-4-(4-(dimethylamino)piperidin-1-yl)phenyl)amino)imidazo[1,2-b]pyrimido[4,5-d]pyridazin-5(6H)-one], the entries for the “Inh. (%) of Wee1 kinase” value in assay [1] (C 0.01 μm) and in assay [1] (C 1 μm) were 10% and 96%, respectively. The IC50 was 144 nM in assay [2] (LoVo cells, 3 d, MTT) and 249 nM in assay [3] (setting [4]).

For the molecule `Cc1cc(Nc2ncc3c(=O)n(-c4c(Cl)cccc4Cl)n4cc(C(C)C)nc4c3n2)ccc1N1CCC(N(C)C)CC1` [Example 62, 6-(2,6-dichlorophenyl)-2-((3-methyl-4-(4-(dimethylamino)piperidin-1-yl)phenyl)amino)-9-isopropylimidazo[1,2-b]pyrimido[4,5-d]pyridazin-5(6H)-one], the “Inh. (%) of Wee1 kinase” value in assay [1] (C 0.01 μm) was found to be 7%. For the same molecule, the IC50 in assay [2] (LoVo cells, 3 d, MTT) came to 620 nM; in assay [3] (setting [4]) it was 197 nM.

For the molecule `Cc1cc(Nc2ncc3c(=O)n(-c4c(F)cccc4Cl)n4ccnc4c3n2)ccc1N1CCN(C)CC1` [Example 9, 6-(2-chloro-6-fluorophenyl)-2-((3-methyl-4-(4-methylpiperazin-1-yl)phenyl)amino)imidazo[1,2-b]pyrimido[4,5-d]pyridazin-5(6H)-one], the “Inh. (%) of Wee1 kinase” value amounted to 14% in assay [1] (C 0.01 μm) and 97% in assay [1] (C 1 μm). Further, the IC50 was found to be 213 nM in assay [2] (LoVo cells, 3 d, MTT) and 284 nM in assay [3] (setting [4]).

Regarding `Cc1cccc(F)c1-n1c(=O)c2cnc(Nc3ccc(N4CCN(C)CC4)c(Cl)c3)nc2c2nccn21` [Example 51, 6-(2-fluoro-6-methylphenyl)-2-((3-chloro-4-(4-methylpiperazin-1-yl)phenyl)amino)imidazo[1,2-b]pyrimido[4,5-d]pyridazin-5(6H)-one], in assay [1] (C 1 μm), the “Inh. (%) of Wee1 kinase” value was found to be 88%. For the same molecule, the IC50 was 998 nM in assay [2] (LoVo cells, 3 d, MTT) and 1220 nM in assay [3] (setting [4]).

For `Cc1cc(Nc2ncc3c(=O)n(-c4c(C)cccc4F)n4ccnc4c3n2)cc(C)c1N1CCN(C)CC1` [Example 15, 6-(2-fluoro-6-methylphenyl)-2-((3,5-dimethyl-4-(4-methylpiperazin-1-yl)phenyl)amino) imidazo[1,2-b]pyrimido[4,5-d]pyridazin-5(6H)-one], the “Inh. (%) of Wee1 kinase” value in assay [1] (C 1 μm) stood at 87%. Also, the IC50 in assay [2] (LoVo cells, 3 d, MTT) worked out at 832 nM; in assay [3] (setting [4]), 904 nM.

In the case of `CN1Cc2cc(Nc3ncc4c(=O)n(-c5c(F)cccc5Cl)n5ccnc5c4n3)ccc2C(C)(C)C1` [Example 12, 6-(2-chloro-6-fluorophenyl)-2-((2,4,4-trimethyl-1,2,3,4-tetrahydroisoquinolin-7-yl)amino)imidazo[1,2-b]pyrimido[4,5-d]pyridazin-5(6H)-one], in assay [1] (C 1 μm), the “Inh. (%) of Wee1 kinase” value came out at 96%. The IC50 amounted to 818 nM in assay [2] (LoVo cells, 3 d, MTT) and 445 nM in assay [3] (setting [4]).

For `Cc1cc(Nc2ncc3c(=O)n(-c4c(F)cccc4F)n4ccnc4c3n2)cc(Cl)c1N1CCN(C)CC1` [Example 20, 6-(2,6-difluorophenyl)-2-((3-chloro-5-methyl-4-(4-methylpiperazin-1-yl)phenyl)amino) imidazo[1,2-b]pyrimido[4,5-d]pyridazin-5(6H)-one], the “Inh. (%) of Wee1 kinase” value in assay [1] (C 1 μm) worked out at 77%. The IC50 is 364 nM in assay [2] (LoVo cells, 3 d, MTT) and 597 nM in assay [3] (setting [4]).

Regarding `Cc1cc(Nc2ncc3c(=O)n(-c4c(F)cccc4Cl)n4ccnc4c3n2)cc(C)c1N1CCN(C)CC1` [Example 11, 6-(2-chloro-6-fluorophenyl)-2-((3,5-dimethyl-4-(4-methylpiperazin-1-yl)phenyl)amino)imidazo[1,2-b]pyrimido[4,5-d]pyridazin-5(6H)-one], in assay [1] (C 1 μm), the “Inh. (%) of Wee1 kinase” value was 93%. The IC50 is 266 nM in assay [2] (LoVo cells, 3 d, MTT) and 555 nM in assay [3] (setting [4]).

As to `Cc1cc(Nc2ncc3c(=O)n(-c4c(F)cccc4F)n4ccnc4c3n2)ccc1N1CCN(C)CC1` [Example 2, 6-(2,6-difluorophenyl)-2-((3-methyl-4-(4-methylpiperazin-1-yl)phenyl)amino)imidazo[1,2-b]pyrimido[4,5-d]pyridazin-5(6H)-one], the “Inh. (%) of Wee1 kinase” value in assay [1] (C 1 μm) turned out to be 93%. The IC50 amounted to 406 nM in assay [2] (LoVo cells, 3 d, MTT) and 652 nM in assay [3] (setting [4]).

As to `CN1CCN(c2ccc(Nc3ncc4c(=O)n(-c5c(Cl)cccc5Cl)n5ccnc5c4n3)cc2)CC1` [Example 1, 6-(2,6-dichlorophenyl)-2-((4-(4-methylpiperazin-1-yl)phenyl)amino)imidazo[1,2-b]pyrimido[4,5-d]pyridazin-5(6H)-one], in assay [1], the “inhibitory effect on the activity of Wee1 kinase (summary in words)” value is on record as “good inhibitory effect”. The “Inh. (%) of Wee1 kinase” value in assay [1] (C 0.01 μm) amounted to 11%; in assay [1] (C 0.1 μm), 75%; in assay [1] (C 1 μm) it was 94%. Further, the IC50 in assay [2] (LoVo) is 524 nM; in assay [3] (NCI-H1299, 72 h) it was 916 nM. In addition, in assay [2] (MTT method), the “inhibitory effect on the growth of LoVo cells (summary in words)” value is listed as “inhibitory effect”. Also, in assay [3] (MTT method), the “inhibitory effect on the growth of NCI-H1299 cell (summary in words)” value is listed as “inhibitory effect”.

Consider `Cc1cc(Nc2ncc3c(=O)n(-c4c(Cl)cccc4Cl)n4ccnc4c3n2)cc(F)c1N1CCN(C)CC1` [Example 28, 6-(2,6-dichlorophenyl)-2-((3-fluoro-5-methyl-4-(4-methylpiperazin-1-yl)phenyl)amino)imidazo[1,2-b]pyrimido[4,5-d]pyridazin-5(6H)-one], for which the “Inh. (%) of Wee1 kinase” value in assay [1] (C 0.01 μm) is 15%; in assay [1] (C 1 μm) it was 95%. Moreover, the IC50 came to 266 nM in assay [2] (LoVo) and 295 nM in assay [3] (NCI-H1299, 72 h).

Regarding `Cc1cn2c(n1)c1nc(Nc3ccc(N4CCN(C)CC4)c(Cl)c3)ncc1c(=O)n2-c1c(Cl)cccc1Cl` [Example 57, 6-(2,6-dichlorophenyl)-2-((3-chloro-4-(4-methylpiperazin-1-yl)phenyl)amino)-9-methylimidazo[1,2-b]pyrimido[4,5-d]pyridazin-5(6H)-one], the figures for the “Inh. (%) of Wee1 kinase” value in assay [1] (C 0.01 μm) and in assay [1] (C 1 μm) were 12% and 93%, respectively. Besides, the IC50 in assay [2] (LoVo cells, 3 d, MTT) stood at 269 nM; in assay [3] (setting [4]), 173 nM.
